{"source": "paper PMC7916057", "key": {"[1]": {"tested_on": "AS1411-N6 (FRET-labeled) (DNA, G4) GGTTGGGGTGGTGGTGGTTGTGGTGGTGGTGGCCAACC", "assay": "FRET melting", "conditions": "K+ 140 mM; 10 mM lithium cacodylate pH 7.2; ligand 4 eq., DNA 0.2 µM"}, "[2]": {"tested_on": "AS1411 (FRET-labeled) (DNA, G4) GGTGGTGGTGGTTGTGGTGGTGGTGG", "assay": "FRET melting", "conditions": "K+ 140 mM; 10 mM lithium cacodylate pH 7.2; ligand 4 eq., DNA 0.2 µM"}, "[3]": {"tested_on": "AS1411 (biotin-labeled) (DNA, G4) GGTGGTGGTGGTTGTGGTGGTGGTGG", "assay": "SPR", "conditions": "K+ 140 mM; 10 mM phosphate, 25 °C; 1:1 affinity model"}, "[4]": {"tested_on": "AS1411-N6 (biotin-labeled) (DNA, G4) GGTTGGGGTGGTGGTGGTTGTGGTGGTGGTGGCCAACC", "assay": "SPR", "conditions": "K+ 140 mM; 10 mM phosphate, 25 °C; 1:1 affinity model"}, "[5]": {"tested_on": "AS1411 (DNA, G4) GGTGGTGGTGGTTGTGGTGGTGGTGG", "assay": "CD spectra", "conditions": "K+ 140 mM; 10 mM lithium cacodylate; ellipticity increase"}, "[6]": {"tested_on": "AS1411-N6 (DNA, G4) GGTTGGGGTGGTGGTGGTTGTGGTGGTGGTGGCCAACC", "assay": "CD spectra", "conditions": "K+ 140 mM, 10 mM lithium cacodylate"}, "[7]": {"tested_on": "AS1411-N6 (DNA, G4) GGTTGGGGTGGTGGTGGTTGTGGTGGTGGTGGCCAACC", "assay": "1H NMR titration (imino region)", "conditions": "10 mM potassium phosphate pH 6.9, 10% D2O, 25 °C; duplex signals lost at 3 eq."}, "[8]": {"tested_on": "AS1411-N6 (DNA, G4) GGTTGGGGTGGTGGTGGTTGTGGTGGTGGTGGCCAACC", "assay": "CD melting (260 nm)", "conditions": "K+ 140 mM; 10 mM lithium cacodylate pH 7.2; ligand 4 eq., DNA 10 µM"}, "[9]": {"tested_on": "AS1411 (DNA, G4) GGTGGTGGTGGTTGTGGTGGTGGTGG", "assay": "CD melting (260 nm)", "conditions": "K+ 140 mM; 10 mM lithium cacodylate pH 7.2; ligand equivalents not given"}, "[10]": {"biological_target": "T1, nucleolin RBD1,2 (NCL RBD 1,2) (UniProt P19338 307-466)", "T1 sequence (P19338 307-466)": "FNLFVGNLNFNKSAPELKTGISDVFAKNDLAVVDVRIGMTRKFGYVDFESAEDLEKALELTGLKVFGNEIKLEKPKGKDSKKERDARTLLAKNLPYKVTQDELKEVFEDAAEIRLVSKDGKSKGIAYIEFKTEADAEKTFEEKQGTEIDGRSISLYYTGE", "assay": "fluorescence titration; 360A; PAGE: 10 mM phosphate, 140 mM KCl, 20 uM DNA, 1:1(:1) ratio, 30 min; fluorescence titration buffer, pH and temperature not given in the material", "conditions": "protein: recombinant; unlabelled in PAGE; stem-loop duplex plus G4; monomer major, dimer band also seen"}, "[11]": {"biological_target": "T1, nucleolin RBD1,2 (NCL RBD 1,2)", "assay": "fluorescence titration; PhenDC3; PAGE: 10 mM phosphate, 140 mM KCl, 20 uM DNA, 1:1(:1) ratio, 30 min; fluorescence titration buffer, pH and temperature not given in the material", "conditions": "protein: recombinant; unlabelled in PAGE; stem-loop duplex plus G4; monomer major, dimer band also seen"}, "[12]": {"biological_target": "T1, nucleolin RBD1,2 (NCL RBD 1,2)", "assay": "fluorescence titration; no ligand; PAGE: 10 mM phosphate, 140 mM KCl, 20 uM DNA, 1:1(:1) ratio, 30 min; fluorescence titration buffer, pH and temperature not given in the material", "conditions": "protein: recombinant; unlabelled in PAGE; stem-loop duplex plus G4; monomer major, dimer band also seen"}, "[13]": {"biological_target": "T1, nucleolin RBD1,2 (NCL RBD 1,2)", "assay": "fluorescence titration; TMPyP4; PAGE: 10 mM phosphate, 140 mM KCl, 20 uM DNA, 1:1(:1) ratio, 30 min; fluorescence titration buffer, pH and temperature not given in the material", "conditions": "protein: recombinant; unlabelled in PAGE; stem-loop duplex plus G4; monomer major, dimer band also seen"}}, "data": [{"molecule": "CN(C)c1ccc(Nc2c3ccc(NC(=O)CCN4CCCC4)cc3nc3cc(NC(=O)CCN4CCCC4)ccc23)cc1", "values": [{"measurement": "ΔTm", "setting": "[1]", "value": "3.73 ± 0.09", "unit": "°C"}, {"measurement": "ΔTm", "setting": "[2]", "value": "8.99 ± 0.79", "unit": "°C"}]}, {"molecule": "C[n+]1cc(NC(=O)c2ccc3ccc4ccc(C(=O)Nc5cc6ccccc6[n+](C)c5)nc4c3n2)cc2ccccc21", "values": [{"measurement": "KD", "setting": "[3]", "value": "344 ± 53.8", "unit": "nM"}, {"measurement": "KD", "setting": "[4]", "value": "227 ± 54", "unit": "nM"}, {"measurement": "binding", "setting": "[5]", "value": "yes"}, {"measurement": "ΔTm", "setting": "[1]", "value": "22.89 ± 1.49", "unit": "°C"}, {"measurement": "ΔTm", "setting": "[2]", "value": "24.77 ± 2.56", "unit": "°C"}, {"measurement": "binding", "setting": "[6]; 280 nm band lost at 3–4 eq.", "value": "yes"}]}, {"molecule": "C[n+]1cc(NC(=O)c2cccc(C(=O)Nc3cc4ccccc4[n+](C)c3)n2)cc2ccccc21", "values": [{"measurement": "KD", "setting": "[3]", "value": "43.4 ± 8.47", "unit": "nM"}, {"measurement": "KD", "setting": "[4]", "value": "38.2 ± 5.4", "unit": "nM"}, {"measurement": "binding", "setting": "[7]", "value": "yes"}, {"measurement": "binding", "setting": "[5]", "value": "yes"}, {"measurement": "ΔTm", "setting": "[1]", "value": "20.16 ± 0.41", "unit": "°C"}, {"measurement": "ΔTm", "setting": "[8]", "value": "> 30", "unit": "°C"}, {"measurement": "ΔTm", "setting": "[2]", "value": "19.28 ± 0.99", "unit": "°C"}]}, {"molecule": "C[n+]1ccc(-c2c3nc(c(-c4cc[n+](C)cc4)c4ccc([nH]4)c(-c4cc[n+](C)cc4)c4nc(c(-c5cc[n+](C)cc5)c5ccc2[nH]5)C=C4)C=C3)cc1", "values": [{"measurement": "KD", "setting": "[3]", "value": "115 ± 7.09", "unit": "nM"}, {"measurement": "KD", "setting": "[4]", "value": "264 ± 30", "unit": "nM"}, {"measurement": "ΔTm", "setting": "[1]", "value": "28.94 ± 0.23", "unit": "°C"}, {"measurement": "ΔTm", "setting": "[2]", "value": "21.75 ± 1.08", "unit": "°C"}, {"measurement": "binding", "setting": "[6]; ellipticity increase", "value": "yes"}, {"measurement": "ΔTm", "setting": "[9]", "value": "~ 25 °C"}]}, {"molecule": "NCCOc1cc(C(=O)Nc2cc(OCCN)c3ccccc3n2)nc(C(=O)Nc2cc(OCCN)c3ccccc3n2)c1", "values": [{"measurement": "ΔTm", "setting": "[1]", "value": "2.35 ± 0.44", "unit": "°C"}, {"measurement": "ΔTm", "setting": "[2]", "value": "-0.75 ± 1.02", "unit": "°C"}]}, {"molecule": "GGTTGGGGTGGTGGTGGTTGTGGTGGTGGTGGCCAACC (structured_DNA)", "note": "[AS1411-N6]", "values": [{"measurement": "Kd", "setting": "[10]", "value": "700 ± 100", "unit": "nM"}, {"measurement": "Kd", "setting": "[11]", "value": "1500 ± 300", "unit": "nM"}, {"measurement": "Kd", "setting": "[12]", "value": "1000 ± 100", "unit": "nM"}, {"measurement": "Kd", "setting": "[13]", "value": "1100 ± 200", "unit": "nM"}]}]}
